Where “and” joins values, the source holds several entries; their conditions need not be identical. Identical values can stand only once. Entries after “also recorded” stand apart in the source; their conditions may differ. Like-named read-outs stand apart in the source and are kept apart here.
Experiments:
[1] = target: T1, dengue virus capping enzyme (Dengue virus type 2, UniProt P29990); assay: biochemical; assay type: binding, dengue virus type 2 (strain 16681)
T1 sequence (P29990 2492-2758): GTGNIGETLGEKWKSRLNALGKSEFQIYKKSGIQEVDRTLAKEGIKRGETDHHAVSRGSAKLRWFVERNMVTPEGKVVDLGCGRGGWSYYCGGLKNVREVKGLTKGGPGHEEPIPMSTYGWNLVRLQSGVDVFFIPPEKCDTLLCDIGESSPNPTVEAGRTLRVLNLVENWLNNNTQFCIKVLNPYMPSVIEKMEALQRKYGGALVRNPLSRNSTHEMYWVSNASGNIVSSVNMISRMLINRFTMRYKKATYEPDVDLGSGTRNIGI

[2] = target: yellow fever virus capping enzyme (Yellow fever virus, UniProt P03314); assay: biochemical; assay type: binding, yellow fever virus (strain 17D)
yellow fever virus capping enzyme, sequence (P03314 2507-2774 limits assumed): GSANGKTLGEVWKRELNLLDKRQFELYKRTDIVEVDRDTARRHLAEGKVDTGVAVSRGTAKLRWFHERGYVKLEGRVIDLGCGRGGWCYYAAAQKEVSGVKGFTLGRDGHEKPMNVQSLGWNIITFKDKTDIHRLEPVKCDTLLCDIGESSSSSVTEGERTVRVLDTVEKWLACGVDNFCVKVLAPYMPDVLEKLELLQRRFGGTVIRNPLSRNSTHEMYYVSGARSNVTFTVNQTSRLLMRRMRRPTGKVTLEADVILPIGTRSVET

[3] = test system: dengue type 2 virus subgenomic replicon (BHK-pD2hRucPac); assay: Antiviral (replicon) assay, Renilla luciferase; assay type: cell-based
dengue capping enzyme = dengue capping enzyme (Dengue virus type 2, UniProt P29990); assay: Guanylation inhibition assay
[4] = Cell viability (CellTiter-Glo) in replicon assay; conditions: hamster, BHK-pD2hRucPac cells (dengue replicon cells)
[5] = target: T1, dengue virus capping enzyme; assay type: binding
BHK-pD2hRucPac cells = assay: Cell viability (CellTiter-Glo) in replicon assay; conditions: read-out: Replicon Assay_CC50_M; Table 2-1
WNV = assay: Ki determination, fluorescence polarization (FP_WNV_KI); conditions: read-out: FP_WNV_KI_AVG_WNV_M; Table 2-1
[6] = test system: West Nile virus (Kunjin subtype); assay type: cell-based
yellow fever (17D) virus = assay type: cell-based
Sindbis virus pBG451 = assay type: cell-based
[7] = test system: West Nile virus (Kunjin) RNA; assay: qRT-PCR of Kunjin viral RNA in culture media; assay type: cell-based
Experimental: Quantitative Reverse Transcriptase Real-Time PCR Analysis. West Nile virus (Kunjin) RNA was extracted from cell culture media with Trizol LS (Invitrogen, La Jolla, Calif.) following the manufacturer's protocol. Quantitative reverse transcriptase real-time PCR reactions for Kunjin genomic RNA were performed using the Brilliant III Ultra-Fast SYBR QRT-PCR Master Mix (Catalog # 600886, Agilent, Santa Clara, Calif.) with primers Fwd 6170 (5′-[…] (SEQ ID NO: 1)) and Rev 6278 (5′-[…] (SEQ ID NO: 2)). To set up qRT-PCR reactions, 2 μL of extracted RNA was added to 5 μL of 2× master mix, 1 μL of 5 μM Fwd 6170 primer, 1 μL of 5 μM Rev 6278 primer, and 1 μL of 100 mM DTT in 96-well PCR plates with optically clear sealing films. No RNA and no primer controls were included in each experiment. qRT-PCR reactions were performed on a BioRad CFX384 real-time PCR thermal cycler using the following cycling conditions: Reverse transcriptase step=50° C., 10 minutes; denature step=95° C., 3 minutes; PCR (40 cycles)=95° C., 5 seconds/60° C., 10 seconds. Melt curves were performed at the end of each run, to verify the specificity of the detected SYBR signal. Cq values were determined by setting the threshold to 40 for all experiments. Standard curves were generated from diluted media containing Kunjin virus of known titer (PFU/mL), and the Cq values from experimental samples were compared to the standard curve to establish PFU equivalent/mL values for each sample (y=−3.475x+27.577, y=Cq , X=Log10(PFU)). The limit of detection in these experiments was determined to be 10 PFU equivalents/mL. All experiments were performed three times, and the average and standard error of the mean reported.

Kunjin virus NS5 protein = assay: Western blot analysis of NS5 in Kunjin infected BHK cells; conditions: MOI=0.01, 48 hours post-infection, increasing concentrations
[8] = Dengue virus, 72 h, read-out: Replicon EC50, Table 3, 72 hours
[9] = Dengue virus, read-out: Replicon Assay_EC50_M, Table 2-1
[10] = Replicon Assay_CC50_M, Table 2-1
[11] = Replicon CC50, Table 3, 72 hours
[12] = Table 2-1, read-out: Replicon Assay_EC50_M
[13] = Dengue virus, 72 h, read-out: Replicon EC50, 72 hours

Structure (SMILES) | Ki ([1]; read-out: FP_DEN_Ki_AVG_DEN_M) | Ki ([2]; read-out: FP_YF_KI_AVG_YF_M) | EC50 [3, 12] | CC50 (BHK-pD2hRucPac cells) | further results
O=C(O)CCN1C(=O)/C(=C/c2ccc(Cl)cc2Cl)SC1=S [BG-330] | – | – | – | – | Ki ([1]; FP_DEN_Ki_AVG_DEN_M): 10 µM; Ki ([1]; Ki (GTP displacement)): 9.8 µM; Ki ([2]; FP_YF_KI_AVG_YF_M): 9 µM; EC50 [3, 8]: 8.7 µM; EC50 [3, 9]: 9 µM; IC50 (dengue capping enzyme): 2.6 µM; CC50 at 72 h [4, 10]: 11 µM; CC50 at 72 h [4, 11]: 12 µM
O=C(O)CN1C(=O)/C(=C/c2ccc(OCc3ccccc3)cc2)SC1=S [BG-170] | – | – | – | – | HTS Activity [5]: W (key: Weak (W)=50%-75% reduction in FP signal; Moderate (M)=76%-90% reduction; Strong (S)=>90% reduction)
O=C(O)CN1C(=O)/C(=C/c2ccc(Oc3ccccc3)cc2)SC1=S [BG-115] | – | – | – | – | HTS Activity [5]: M (key: Weak (W)=50%-75% reduction in FP signal; Moderate (M)=76%-90% reduction; Strong (S)=>90% reduction)
O=C(O)CCN1C(=O)/C(=C/c2cccc(Cl)c2Cl)SC1=S [BG-324] | – | – | – | – | Ki ([1]; FP_DEN_Ki_AVG_DEN_M): 10 µM; Ki ([1]; Ki (GTP displacement)): 9.9 µM; Ki ([2]; FP_YF_KI_AVG_YF_M): 16 µM; EC50 [3, 8]: 8.5 µM; EC50 [3, 9]: 9 µM; IC50 (dengue capping enzyme): 155 µM; CC50 at 72 h [4, 10]: 12 µM; CC50 at 72 h [4, 11]: 12 µM
CC(C)(C)c1ccc(/C=C2\SC(=S)N(CCC(=O)O)C2=O)cc1 [BG295] | 2 µM | 2 µM | 30 µM | 114 µM | Ki (WNV): 8 µM
COc1ccccc1C=C1SC(=S)N(C(Cc2ccccc2)C(=O)O)C1=O (racemic) [BG101] | 9 µM | 8 µM | 42 µM | 46 µM | –
CC(C)(C)c1ccc(/C=C2/SC(=S)N(CCC(=O)O)C2=O)cc1 [BG-323, (E)-3-(5-(4-tert-butylbenzylidene)-4-oxo-2-thioxo-1,3-thiazolidin-3-yl)propanoic acid] | – | – | – | – | Ki ([1]; FP_DEN_Ki_AVG_DEN_M): 7.5 µM; Ki ([1]; Ki (GTP displacement)): ~7 µM and 7.5 µM and ~10 µM; Ki ([2]; FP_YF_KI_AVG_YF_M): 9.5 µM; Ki ([2]; Ki (GTP binding)): ~7 µM; EC50 [3, 8]: 30.8 µM; EC50 [3, 13]: 30.8 µM; EC50 [3, 9]: 30.8 µM; EC50 ([3]; read-out: Replicon EC50, 72 hours): ~30 µM; reduction of virus titers [6]: ~3 logs; reduction of virus titers (yellow fever (17D) virus): slightly less robust effect; Renilla signal of Sindbis virus (Sindbis virus pBG451): Only a very minor reduction in Renilla signal; also recorded: insensitive; viral RNA in media with replacement of compound every 24 hours ([7]; 100 μM, fresh media every 24 hours for 72 hours): significantly reduced viral RNA in media over time; viral RNA detectable in the media ([7]; BHK, Kunjin MOI=0.01, 50 μM or 100 μM, 72 hours post-infection): significantly reduced; activity after pre-incubation in media at 37° C. ([7]; pre-incubated 3, 2, 1, or 0 days, 50 μM, Kunjin RNA at 72 hours): becomes less active over longer incubation periods; cell viability (BHK cells): minor reduction in cell viability; CC50 at 72 h [4, 10]: 184 µM; CC50 at 72 h [4, 11]: 184 µM; CC50 at 72 h ([4]; Replicon CC50, text): 184 µM; viral NS5 protein level (Kunjin virus NS5 protein): significant decrease in NS5
O=C(CN1C(=O)S/C(=C\c2ccccc2F)C1=O)Nc1ccccc1C(=O)O [BG142] | 23 µM | 51 µM | 102 µM | 137 µM | –
CN1C(=O)S/C(=C\c2ccc(-c3ccc(C(=O)O)c(Cl)c3)o2)C1=O [BG175] | 13 µM | 17 µM | 78 µM | 82 µM | –
NC(=O)c1ncn([C@@H]2O[C@H](CO)[C@@H](O)[C@H]2O)n1 [Ribavirin, reference compound] | – | – | – | – | EC50 [3, 13]: 12 µM; CC50 at 72 h ([4]; Replicon CC50, text): 49 µM
Cc1ccc(N2C(=O)/C(=C/c3ccccc3C(=O)O)SC2=S)c(C)c1 [BG130] | 8 µM | 15 µM | 61 µM | 50 µM | –
CCOc1ccc(N2C(=O)C(=Cc3ccccc3C(=O)O)SC2=S)cc1 [BG126] | 17 µM | 19 µM | 52 µM | 51 µM | –
O=C(O)CN1C(=O)/C(=C\c2ccc(-c3ccc(Cl)cc3Cl)o2)SC1=S [2044-5240] | – | – | – | – | HTS Activity [5]: M (key: Weak (W)=50%-75% reduction in FP signal; Moderate (M)=76%-90% reduction; Strong (S)=>90% reduction)
CC(C(=O)O)N1C(=O)C(=Cc2ccc(Cl)cc2Cl)SC1=S (stereo not shown) [BG133] | 7 µM | 14 µM | 126 µM | 77 µM | –
O=C(CCCN1C(=O)/C(=C/c2ccc(F)cc2)SC1=S)Nc1cccc(C(=O)O)c1 [BG124] | 14 µM | 18 µM | 80 µM | 56 µM | –
O=C(CCN1C(=O)C(=Cc2ccc(Cl)cc2)SC1=S)Nc1cccc(C(=O)O)c1 [BG121] | 3 µM | 5 µM | 33 µM | 39 µM | –
O=C1NC(=O)C(=Cc2ccc(Br)cc2)S1 [BG143] | 20 µM | 24 µM | 50 µM | 60 µM | –
COc1ccc2nc(N3CCCCC3)c(C=C3SC(=S)NC3=O)cc2c1 [BG168] | 2 µM | 2 µM | 13 µM | 12 µM | –
Cc1cccc(N2C(=O)/C(=C/c3ccc(C(=O)O)cc3)SC2=S)c1C [BG128] | 11 µM | 13 µM | 45 µM | 42 µM | –
C=CCOc1ccc(Cl)cc1/C=C1\SC(=S)NC1=O [BG114] | 2 µM | 6 µM | 23 µM | 27 µM | –
O=C(O)C(Cc1ccccc1)N1C(=O)C(=CC=Cc2ccccc2)SC1=S (stereo not shown) [BG138] | 3 µM | 4 µM | 32 µM | 33 µM | –
Cc1cccc(/C=C2\SC(=S)N(CN3CCCCC3)C2=O)c1 [BG136] | 16 µM | 27 µM | 41 µM | 49 µM | –
COc1c(I)cc(I)cc1/C=C1\SC(=S)N(CC(=O)O)C1=O [BG-5] | – | – | – | – | HTS Activity [5]: S (key: Weak (W)=50%-75% reduction in FP signal; Moderate (M)=76%-90% reduction; Strong (S)=>90% reduction)
COc1c(I)cc(I)cc1/C=C1\SC(=S)N(CC(=O)O)C1=O [BG308] | 2 µM | 4 µM | 97 µM | 276 µM | –
